We go through 1 molecule from patent publication US12312599B2, “Methods, compositions, and kits for producing beige adipocytes and treating metabolic disorders” (MaineHealth, priority 2018, dated 2025).

The test system of the assay is Primary human subcutaneous white adipocytes. Briefly: UCP1 qPCR in primary human subcutaneous white adipocytes. The assay is classed as cell-based. Particulars: treated with SB. The text has this:
All primary cell lines isolated from WAT were generated from outgrowth of the stromal vascular fraction and purchased from commercial vendors. All cell lines were validated to be at least 95% positive for adipogenic precursors as determined by flow cytometry for PDGFRα. Human white preadipocytes (HWP-c) cells, purchased from PromoCell (C-12730), were isolated from subcutaneous adipose tissue of a person with a BMI of 28. Normal human preadipocytes, purchased from Lonza (PT-5020), were isolated from subcutaneous adipose tissue of a person with a BMI of 21. Type 2 diabetic human preadipocytes, purchased from Lonza (PT-5022), were isolated from subcutaneous adipose tissue of a person with a BMI of 42.1. Type 2 diabetic human preadipocytes, purchased from Zenbio (OPD-F-3), were isolated from omental adipose tissue of a person with a BMI of 38.6. Type 2 diabetic human preadipocytes, purchased from Zenbio (SPD-F-3), were isolated from subcutaneous adipose tissue of a person with a BMI of 53.5. Cryopreserved cells were thawed and seeded in a 100×20 mm TC dish and treated as passage 0. Primary adipogenic precursors were expanded in DMEM containing 10% fetal bovine serum. Medium was changed daily and cells were cultured at 37° C. in a 5% CO2 incubator. Upon 80% confluence, cells are split and passaged at a ratio of 1:6 (Passage 1). […]

Structures are written as SMILES.

Consider `NC(=O)c1ccc(-c2nc(-c3ccc4c(c3)OCO4)c(-c3ccccn3)[nH]2)cc1` [SB, SB431542], for which the UCP1 expression result is reported as “enhanced expression”.
